For test [1], the species on record is Rattus norvegicus.
Description: Ability to stimulate phosphoinositol metabolism was examined in the rat cerebral cortex at 100 uM
The target in test [2] is Muscarinic acetylcholine receptor.
Description: Inhibition of [3H]-(R)-QNB binding to muscarinic receptors of rat brain membranes.
The species named for test [3] is Rattus norvegicus. In words: Ability to stimulate phosphoinisitol metabolism was examined in the rat hippocampus represented as % maximal stimulation. Type of test: functional.
The species entered for test [4] is Rattus norvegicus. In words: cells. As to conditions: Hippocampus.
Description: Inhibition of the response (stimulation of phosphoinositol metabolism in rat hippocampus) to 10 uM of compound by AF-DX 116
The species named for test [5] is Rattus norvegicus. In words: cells. The note with it: Hippocampus. This is another data set of the same source.
Description: Inhibition of the response (stimulation of phosphoinositol metabolism in rat hippocampus) to 10 uM of compound by pirenzepine
Test [6] is filed under the species Rattus norvegicus. In words: cells. As to conditions: Hippocampus. This is another data set of the same source.
Description: Effective concentration of compound that can stimulate phosphoinositol metabolism in rat hippocampus
The species entered for test [7] is Rattus norvegicus. In words: cells. The note with it: Hippocampus. The source holds these as a separate data set.
Description: Inhibition of the response (stimulation of phosphoinositol metabolism in rat hippocampus) to 10 uM of compound by p-F-hexahydrosiladifenidol
The species named for test [8] is Rattus norvegicus. In words: Ability to stimulate phosphoinisitol metabolism was examined in the rat hippocampus. The format is functional.

SMILES strings stand for the structures.

In the case of `CCCCc1noc(C2CN=CNC2)n1.O=C(O)C(F)(F)F` (configuration not stated), the PI in the test listed under Rattus norvegicus [1] was found to be 61%. In test [2], this compound displayed an IC50 of 490 nM.
Turning to `Cc1noc(C2CN=CNC2)n1.O=C(O)C(F)(F)F` (configuration not stated), the Max stimulation in the test listed under Rattus norvegicus [3] was 510%. In the test listed under Rattus norvegicus [1], this compound showed a PI of 700%. Moreover, the IC50 in the test filed under Rattus norvegicus [4] worked out at 1700 nM; in the test filed under Rattus norvegicus [5] it was 38 nM; in the test filed under Rattus norvegicus [7], 1200 nM. Moreover, the EC50 in the test listed under Rattus norvegicus [6] was 5200 nM.
In turn, `CCCCCCCc1noc(C2CN=CNC2)n1.O=C(O)C(F)(F)F` (configuration not stated) registered a PI in the test filed under Rattus norvegicus [1] of 34%. The 50% inhibitory concentration (IC50) in test [2] was determined as 2300 nM.
Taken in the same sequence, the figures for `CCCc1noc(C2CN=CNC2)n1.O=C(O)C(F)(F)F` (configuration not stated) were 79% and 550 nM.
For the compound `CC(=O)OC1CN2CCC1CC2` (configuration not stated) [ACECLIDINE], in the test filed under Rattus norvegicus [1], the PI turned out to be 80%. In the test filed under Rattus norvegicus [8], this compound came in with a Max stimulation of 390%. This compound returned an IC50 in the test listed under Rattus norvegicus [7] of 23 nM.
Turning to `CCCCCc1noc(C2CN=CNC2)n1.O=C(O)C(F)(F)F` (configuration not stated), the PI in the test filed under Rattus norvegicus [1] was 29%. In test [2], the IC50 came to 560 nM.
The compound `CCCCCCCCc1noc(C2CN=CNC2)n1.O=C(O)C(F)(F)F` (configuration not stated) yielded a PI in the test listed under Rattus norvegicus [1] of 28%. Further, in test [2], the IC50 came out at 530 nM.
On to `Cc1noc(C2CN3CCC2CC3)n1` (configuration not stated), for which the PI in the test filed under Rattus norvegicus [1] is reported as 100%. The same compound gave an IC50 in test [2] of 350 nM.
Consider `Cc1noc(C2=CCCN(C)C2)n1`, for which, in the test listed under Rattus norvegicus [1], the PI turned out to be 50%. The IC50 in test [2] is 690 nM.
In the same order, the values of `CCCCCCc1noc(C2CN=CNC2)n1.O=C(O)C(F)(F)F` (configuration not stated) are 4.3% and 2300 nM.
In the test filed under Rattus norvegicus [1], `CCc1noc(C2CN=CNC2)n1.O=C(O)C(F)(F)F` (configuration not stated) returned a PI of 130%.
Still for that read-out and setting: the result for `C[N+](C)(C)CCOC(N)=O.[Cl-]` [CARBACHOL] reads 470%.

In general, IC50 refers to the concentration that inhibits the measured activity by half. Lower therefore signals greater potency in that assay. As usually defined, the EC50 is the midpoint of the concentration-response curve. Low readings indicate higher potency in that assay, high ones lower potency in that assay.
